Source: US20070191493A1, “Use of n-alkanols as activators of the cftr channel” (priority 2003, published 2007)

Experiments:
CFTR channel = CFTR channel (Homo sapiens, UniProt P13569); assay: whole-cell patch-clamp in CHO-CFTR(+) cells; type: cell-based; set-up: expressed in transfected cells; host or cells: CHO (Chinese hamster ovary) cells, CHO-CFTR(+)
From the text: The patch-clamp technique consists in applying a glass pipette or a glass microelectrode to the surface of the cell. By applying slight touch, it is possible to cause the membrane to adhere to the glass. A small piece of membrane (patch) is thus isolated at the end of the pipette. This is the principle of patch-clamp (O. P. Hamill et al., Pflügers Arch., 1981, 391, 85-100; R. Penner, A Practical Guide to Patch Clamping, 1995, In Single Channel Recording, 2nd edition (Eds. B. Sakmann et al.) Plenum Press, New York, 3-30). To do this, the patch-clamp pipette must have a tip of the order of 1 μm in diameter and a resistance of the order of 1-5 MΩ. The resistance of a pipette or of a microelectrode makes it possible to assess the fineness of the tip: the greater the resistance, the finer the tip or the more the electrode is blocked. […] Interactions between the membrane and the glass will form, aided by a slight suction or negative pressure in the pipette. The quality of this interaction (or sealing) is also assessed by measuring the resistance between the glass and the membrane. To measure overall currents in the whole cell configuration, a sealing resistance of 1 GΩ is sufficient.
More specifically, culture dishes (cell support) are placed in an experimentation cell (volume 1 ml) on the platform of an inverted microscope (Nikon) equipped with phase-contrast lighting. The whole-cell configuration is used for recording the cell currents (Hamill et al., 1981). The experiments are carried out at ambient temperature (20-22° C.). The currents are amplified with an Axopatch 200B amplifier (Axon Instrument Ltd) having a 2-5 kHz low-pass filter (Bessel 6-pole filter), and recorded on the hard disk of a PC after digitization at 10-25 kHz. The pipettes are produced from glass tubes 1 mm in diameter (Clark Electromedical Instrument) in four steps with a horizontal drawing device (Bruwn Flaming 97, CA).
The pipettes, filled with an intracellular solution containing, in mM: 60 KCl; 80 NMDG ([…]); 10 HEPES; 5 EGTA; 1 CaCl2; 4 MgATP; 0.2 Na3GTP; pH 7.4, titrated with KOH), having a resistance of 5 MΩ. The potentials are expressed as the difference between the potential of the patch electrode and that of the bath. In the whole-cell configuration, they represent the membrane potential of the cell. The junction potentials that form between the recording electrode and the extracellular medium are eliminated before the contact of the electrode with the cell. […] The current-voltage relationships in the stationary state are determined using slow voltage ramps (20 mV/.s) under an imposed voltage condition. […]

CHO-CFTR(-) cells = assay: 125I iodide efflux in CHO-CFTR(-) control cells that do not express CFTR; type: cell-based, Chinese hamster; settings: octan-1-ol 0.1 to 5 mM, FSK 5 μM, A23187 2 μM
intracellular cAMP level = assay: total intracellular cAMP assay in CHO-CFTR(+) cells; type: cell-based, Chinese hamster; settings: 5 min, FSK 1 or 5 μM, alcohols 1 mM
Method: The CHO cells are cultured for four days in a 24-well culture plate. On the fourth day of culture, each well is rinsed twice with 500 μl of medium B, and 500 μl of this buffer containing the molecule to be tested are added to each well. After incubation at 37° C. for 5 min, the reaction is stopped by adding a cell lysis buffer. The cell lysis is verified with Trypan blue. The amount of cAMP contained in the cells is determined using the Enzyme Immuno Assay kit (Amersham Biotechnology). The cAMP level is expressed in pmol/well ±SD.

Sequence of CFTR channel (P13569 whole entry): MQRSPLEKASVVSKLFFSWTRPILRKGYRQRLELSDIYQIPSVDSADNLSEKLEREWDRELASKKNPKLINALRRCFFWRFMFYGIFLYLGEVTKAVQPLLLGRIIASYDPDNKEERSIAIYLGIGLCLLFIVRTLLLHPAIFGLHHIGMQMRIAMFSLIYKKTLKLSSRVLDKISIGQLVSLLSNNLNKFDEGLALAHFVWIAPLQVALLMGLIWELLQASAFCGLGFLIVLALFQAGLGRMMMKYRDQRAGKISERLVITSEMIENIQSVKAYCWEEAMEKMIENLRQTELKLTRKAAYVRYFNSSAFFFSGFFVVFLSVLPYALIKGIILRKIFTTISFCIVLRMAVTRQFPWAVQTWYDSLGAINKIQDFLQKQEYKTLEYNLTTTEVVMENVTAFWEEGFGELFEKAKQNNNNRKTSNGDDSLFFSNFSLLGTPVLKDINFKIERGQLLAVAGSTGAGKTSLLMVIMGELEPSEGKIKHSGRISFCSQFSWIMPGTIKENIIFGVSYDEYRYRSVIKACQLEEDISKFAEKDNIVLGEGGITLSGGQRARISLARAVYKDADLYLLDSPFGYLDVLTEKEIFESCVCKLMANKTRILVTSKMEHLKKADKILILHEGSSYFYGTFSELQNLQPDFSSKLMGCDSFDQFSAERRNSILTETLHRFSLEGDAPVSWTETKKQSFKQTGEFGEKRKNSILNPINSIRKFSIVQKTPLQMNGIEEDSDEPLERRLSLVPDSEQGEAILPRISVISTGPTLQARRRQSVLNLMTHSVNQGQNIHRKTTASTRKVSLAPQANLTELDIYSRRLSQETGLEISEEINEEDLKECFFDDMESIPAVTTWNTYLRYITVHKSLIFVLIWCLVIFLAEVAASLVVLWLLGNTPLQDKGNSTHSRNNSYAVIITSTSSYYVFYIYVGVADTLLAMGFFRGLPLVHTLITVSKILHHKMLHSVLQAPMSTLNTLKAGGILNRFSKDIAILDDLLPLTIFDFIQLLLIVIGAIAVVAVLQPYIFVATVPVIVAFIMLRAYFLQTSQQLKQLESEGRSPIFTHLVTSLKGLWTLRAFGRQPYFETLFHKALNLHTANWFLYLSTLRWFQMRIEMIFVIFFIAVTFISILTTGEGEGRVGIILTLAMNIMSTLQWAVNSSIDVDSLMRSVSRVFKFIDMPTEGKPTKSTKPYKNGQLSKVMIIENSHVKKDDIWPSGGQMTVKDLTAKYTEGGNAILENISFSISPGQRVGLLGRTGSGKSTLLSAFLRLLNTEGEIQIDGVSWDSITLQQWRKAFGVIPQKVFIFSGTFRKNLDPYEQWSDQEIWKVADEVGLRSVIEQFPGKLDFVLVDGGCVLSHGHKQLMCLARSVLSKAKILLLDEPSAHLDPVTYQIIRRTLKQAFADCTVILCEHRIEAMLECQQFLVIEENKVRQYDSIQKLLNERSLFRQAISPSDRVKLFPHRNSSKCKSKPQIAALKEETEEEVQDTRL

CCCCCCCCO [octan-1-ol]
activation of the CFTR channel by patch-clamp, in words (CFTR channel; octan-1-ol alone 1 mM, without FSK): full activation | reversion potential of the induced current (CFTR channel; whole-cell, FSK- or octan-1-ol-induced current): 1±0.6 mV | increase in membrane conductance compared with the control (CFTR channel; whole-cell, FSK 1 μM, octan-1-ol 1 mM): approximately 10 fold | effect on basal level of 125I efflux in cells not expressing CFTR (CHO-CFTR(-) cells): do not significantly modify the basal level | effect on intracellular cAMP level (intracellular cAMP level): neither octan-1-ol, hexan-1-ol or ethanol modifies the basal cAMP level
